# Test results reported in patent US20130224855A1, “CULTURE MEDIUM FOR EUKARYOTIC CELLS” (priority 2010, published 2013).
# Peptide text beside a SMILES is read from it.
# System: IgG expressing CHO cell line (CHO-2: ATCC CRL 11397, producing IgG4)
# Assay: Growth and production curves of IgG expressing CHO cells in suspension culture in supplemented chemically defined medium
# Assay type: cell-based, Chinese hamster
# Conditions: for Cell growth (area under curve) after 14 days: dimensionless AUC
# Description: The cell culture assay was carried out in commercially available IS CHO-CD medium (Irvine Scientific, Cat. No. 91119). […] Penicillin and streptomycin were added to prevent any bacterial growth during the growth assay. The media was supplemented with β-Alanine, γ-glutamyl cysteine, glycyl-glycine, L-homoserine or N-acetyl methionine, all purchased from Sigma Aldrich, Germany, in varying concentrations (1×10^-5 to 1×10^-1% (w/v), see Table 2). The supplemented medium was mixed with a vortex mixture, filtered using a 0.22 μm filter and subsequently used in a growth assay. An IgG expressing CHO cell line was used (CHO-2: ATCC CRL 11397, producing IgG4). The cell lines were grown in the adherent conditions for a few passages and once confluent, they were transferred to animal-free conditions in the supplemented media described in Example 5. […] Chemically defined media with and without added amino acid derivatives were tested. No fresh media was added during the growth assay. Cells were counted using the […] counter (Innovatis, Germany). The cell counts were used to calculate the area under the growth curve and represented as dimensionless area under curve (AUC) values as described in detail in Ling, C. X, Huang, J. and Zhang, H. (2003), International joint conferences on artificial intelligence, pp. 329-341. The supernatant samples were taken every alternate days for the IgG production measurements. IgG production was measured using sandwich ELISA method. […] The cells were visually inspected using a phase contrast microscope (Zeiss Axiovert 25, 400× magnification). […] Only single cells were observed and no aggregation of cells was seen. The cell shape was also positively affected. […] This was in contrast with the observation that a lot of cell aggregates were present in CHO cell cultures grown in chemically defined medium without amino acid derivatives.
# [1] = added at 1 × 10^−1 % w/v in IS CHO-CD medium
# [2] = added at 1 × 10^−1 % w/v in IS CHO-CD medium, ratio of cumulative IgG (mg/ml) and AUC at day 11
# [3] = added at 1 × 10^−2 % w/v in IS CHO-CD medium
# [4] = added at 1 × 10^−3 % w/v in IS CHO-CD medium
# [5] = added at 1 × 10^−4 % w/v in IS CHO-CD medium
# [6] = added at 1 × 10^−5 % w/v in IS CHO-CD medium
SMILES,Cell growth (area under curve) after 14 days [1],Specific IgG production after 11 days [2],Specific IgG production after 11 days [3],Cell growth (area under curve) after 14 days [3],Specific IgG production after 11 days [4],Cell growth (area under curve) after 14 days [4],Specific IgG production after 11 days [5],Cell growth (area under curve) after 14 days [5],Specific IgG production after 11 days [6],Cell growth (area under curve) after 14 days [6]
N[C@@H](CCO)C(=O)O [L-homoserine],45.7,122.0,72.0,59.1,96.8,39.4,–,–,–,–
NCCC(=O)O [β-alanine],62.5,92.8,108.6,51.3,97.1,50.6,–,–,–,–
NCC(=O)NCC(=O)O [Glycyl-glycine] (H-Gly-Gly-OH),50.6,86.6,95.8,48.2,104.2,49.6,113.5,47.7,102.0,51.0
N[C@@H](CCC(=O)N[C@@H](CS)C(=O)O)C(=O)O [γ-glutamyl cysteine],46.1,78.2,105.9,42.8,68.33,58.0,77.2,47.6,72.5,58.9
CSCC[C@H](NC(C)=O)C(=O)O [N-acetyl methionine],48.6,91.9,90.4,47.9,94.4,46.0,90.3,38.6,81.3,41.2
